From patent US11912645B2, “Lipopeptide compounds for the treatment of pain disorders” (INSERM (Institut National de la Santé et de la Recherche …, priority 2017, dated 2024)

Key:
Type in all cases: in vivo, mouse
[1] = test system: DSS-induced visceral hypersensitivity; assay: DSS-induced colitis visceral hypersensitivity, visceromotor response to colorectal distension; details: DSS 3% 5 days; 100 μL intracolonic 10 μM at day 5; CRD 15-60 mm Hg
Description: FIG. 9: C12-Asn-GABA Inhibits DSS-induced visceral hypersensitivity. Mice received DSS 3% in their drinking water for 5 days to induce colitis. At day 5, mice were intracolonically administrated with C12-Asn-GABA (10 μM; black circles) or vehicle (40% ethanol; white circles). Thirty minutes after intracolonic administration, visceromotor response (VMR) to increasing pressures of colorectal distension was performed. Data are expressed as mean±SEM, n=5 mice per group.
The analgesic properties of the C12-Asn-GABA was assessed in a mouse colitis model. Dextran sulfate sodium (DSS) at 3% during 5 days was added in the drinking water in order to induce colitis.

[2] = Colon and blood levels after intracolonic administration (LC-MS/MS); details: intracolonic 10 μM; 30 minutes or 4 hours; vs vehicle
Description: FIG. 6: C12-Asn-GABA inhibits capsaicin-induced visceral hypersensitivity without altering Intestinal contraction. Mice received intracolonic administration of C12-Asn-GABA (10 μM; black symbols) or vehicle (40% ethanol; white symbols) and 30 minutes or 4 hours later colon (A) and blood (B) were harvested in order to quantify C12-Asn-GABA by LC-MS/MS. Data are expressed as mean±SEM, n=8 mice per group. […] Mice received intracolonic administration of C12-Asn-GABA (10 μM; black symbols) or vehicle (40% ethanol; white symbols) and 30 minutes or 4 hours later an intracolonic administration of capsaicin (100 μg/mouse; square) or its vehicle (40% ethanol; circle). Fifteen minutes after capsaicin or vehicle treatment, visceromotor response (VMR) to increasing pressures of colorectal distension was performed. Data are expressed as mean±SEM, n=7-8 mice per group. […] Ex vivo measurement of duodenal mechanical contraction frequency (B) and amplitude (C) in response to Krebs-Ringer solution (control; white bar), to DMSO 0.2% (vehicle; gray bar) or to C12-Asn-GABA (10 μM; black bar). Data are expressed as mean±SEM, n=5-6 per group. […]
(§1) In a first set of experiment, we assessed the ability of the C12-Asn-GABA to cross the epithelial barrier, in vivo. […] The impact of C12-Asn-GABA on visceral hypersensitivity was assessed by measuring the visceromotor responses (VMR) to colorectal distension (CRD). […]

[3] = test system: capsaicin-induced visceral hypersensitivity; assay: Capsaicin-induced visceral hypersensitivity, visceromotor response to colorectal distension
Description: FIG. 6: C12-Asn-GABA inhibits capsaicin-induced visceral hypersensitivity without altering Intestinal contraction. Mice received intracolonic administration of C12-Asn-GABA (10 μM; black symbols) or vehicle (40% ethanol; white symbols) and 30 minutes or 4 hours later colon (A) and blood (B) were harvested in order to quantify C12-Asn-GABA by LC-MS/MS. Data are expressed as mean±SEM, n=8 mice per group. […] Mice received intracolonic administration of C12-Asn-GABA (10 μM; black symbols) or vehicle (40% ethanol; white symbols) and 30 minutes or 4 hours later an intracolonic administration of capsaicin (100 μg/mouse; square) or its vehicle (40% ethanol; circle). Fifteen minutes after capsaicin or vehicle treatment, visceromotor response (VMR) to increasing pressures of colorectal distension was performed. Data are expressed as mean±SEM, n=7-8 mice per group. […] Ex vivo measurement of duodenal mechanical contraction frequency (B) and amplitude (C) in response to Krebs-Ringer solution (control; white bar), to DMSO 0.2% (vehicle; gray bar) or to C12-Asn-GABA (10 μM; black bar). Data are expressed as mean±SEM, n=5-6 per group. Statistical analysis was performed using Kruskal-Wallis analysis of variance and subsequent Dunn's post hoc test.
FIG. 8: Trimebutine maleate has no effect on capsaicin-induced visceral hypersensitivity. Mice received an oral treatment with vehicle (PEG200, white circle) or with trimebutine maleate (25 mg/kg, black circle) and 4 hours later an intracolonic administration of capsaicin (100 μg/mouse; black and white circle). Fifteen minutes after capsaicin, visceromotor response (VMR) to increasing pressures of colorectal distension was performed. Data are expressed as mean±SEM, n=7-8 mice per group. […]
as §1

concentration in the blood [2]: increased the concentration
concentration in the colonic tissue [2]: increased the concentration
Structure (SMILES): CCCCCCCCCCCC(=O)NC(CC(N)=O)C(=O)NCCCC(=O)O (centres unmarked) [C12-Asn-GABA, C11 C(O)-Asn-gamma-aminobutyric acid]
DSS-induced increase in VMR to CRD [1]: significantly decreased for all distension pressures
capsaicin-evoked increase in VMR to CRD ([3]; 100 μL intracolonic 10 μM pretreatment, capsaicin 100 μg/animal, CRD 15-60 mm Hg): significantly prevented for all distension pressures
visceral sensitivity in response to CRD in the absence of capsaicin ([3]; intracolonic 10 μM, no capsaicin): did not modify visceral sensitivity
